Measured values published in patent US12331042B2, “Compounds suitable for the treatment and prophylaxis of muscle wasting and other conditions” (priority 2019, dated 2025).
“Also recorded” adds a separate entry of the source.

Tested on: porin, telethonin, MRPS-5, MuRF1, MuRF2, Tom20 expression
Assay: Western blot analysis of diaphragm, CHF mice
Assay type: in vivo
Procedure: For western blot analyses, frozen diaphragm was homogenized in relaxing buffer (90 mmol/L HEPES, 126 mmol/L potassium chloride, 36 mmol/L sodium chloride, 1 mmol/L magnesium chloride, 50 mmol/L EGTA, 8 mmol/L ATP, and 10 mmol/L creatine phosphate, pH 7.4) containing a protease inhibitor mix (Inhibitor Mix M, Serva, Heidelberg, Germany) and sonicated. Protein concentration of the supernatant was determined (bicinchoninic acid assay, Pierce, Bonn, Germany), and aliquots (5-20 μg) were separated by sodium dodecyl sulfate-polyacrylamide gel electrophoresis. Proteins were transferred to a polyvinylidene fluoride membrane and incubated overnight at 4° C. using the following primary antibodies: porin and telethonin (both 1/1000, Abcam, Cambridge, UK), MRPS-5 ( 1/500, Thermo Fisher, Rockford, IL, USA), MuRF1 and MuRF2 (both 1/1000; commercially available from Myomedix, Neckargemünd, Germany), and Tom20 (1:200, Santa Cruz Biotechnologies, Heidelberg, Germany). Membranes were subsequently incubated with a horseradish peroxidase conjugated secondary antibody, specific bands were visualized by enzymatic chemiluminescence (Super Signal West Pico, Thermo Fisher Scientific Inc., Bonn, Germany), and densitometry was quantified using a one-dimensional scan software package (Scanalytics Inc., Rockville, MD, USA). Measurements were normalized to the loading control GAPDH ( 1/30000; HyTest Ltd, Turku, Finland) or α-tubulin (1:1000, Santa Cruz Biotechnologies). All data are presented as fold change relative to sham.

Cc1cc(=O)oc2cc(OCc3ccc(C(=O)OCC(=O)NC(=O)NCc4ccco4)cc3)ccc12 [MyoMed-946, [2-(2-furylmethylcarbamoylamino)-2-oxo-ethyl] 4-[(4-methyl-2-oxo-chromen-7-yl)oxymethyl]benzoate]
TOM-20 expression (CHF+compound): attenuated; also recorded: modest, but statistically significant, improvement
mitochondrial porin expression (CHF+compound): attenuated; also recorded: near-normal
reduction of Mrps5 expression (Western blot) (CHF+compound vs CHF): reversed
up-regulation of MuRF1 expression (CHF+compound vs CHF): attenuated; also recorded: prevented
up-regulation of MuRF2 expression (CHF+compound vs CHF): attenuated; also recorded: prevented
reduced expression of telethonin (trend (P=0.08) in CHF group): attenuated; also recorded: not evident
